This note sets out measurements from patent US9216165B2, “Combination of a statin and a taxane for the treatment of gastric cancer” (INSERM (Institut National de la Sante et de la Recherche …, priority 2011, dated 2015).

Assay [1] deals with HGT-1 human gastric cancer cells. In words: Apoptosis by Hoechst 33342 staining in HGT-1 cells. It is filed as cell-based. The note with it: for apoptosis: HGT-1. The procedure:
HGT-1 human gastric cancer cells were grown at 37° C. under a humidified atmosphere of 5% CO2 in DMEM (Dulbecco's modified Eagle's medium) (Lonza, Saint Beauzire, France), containing 4.5 g/L glucose and supplemented with 5% fetal bovine serum without antibiotics (Gibco-Invitrogen, Cergy Pontoise, France).
(§1) Apoptosis was determined by Hoechst 33342 (10 μg/ml in PBS) staining of the cells for 15 min at 37° C. and fluorescence microscopy analysis of 300 cells per condition, from replicate cultures.

Assay [2] concerns HGT-1 cells. In words: mRNA levels by quantitative real-time RT-PCR in HGT-1 cells. The format is cell-based, human. The note with it: 48 h. The procedure: Total RNA was isolated using Trizol (Invitrogen, Cergy-Pontoise, france) and the RNA samples were used for the first-strand cDNA synthesis with the High Capacity cDNA Reverse Transcription kit and random hexamer primers (Applied biosystems). Quantitative real-time RT-PCR was performed using the Power SYBR Green Kit (Applied biosystems) according to the manufacturer's instructions. mRNA levels were analyzed in duplicate, normalized against GAPDH or phospho-protein P0 as an internal control gene. The results are expressed as the relative gene expression using the ΔΔCt method (Livak and Schmittgen 2001). The primer sequences and reaction conditions will be provided upon request.
(Quantitative PCR measures a nucleic acid by following its amplification.)

The subject of assay [3] is HGT-1 cells. In words: Protein levels by western blotting in HGT-1 cells. It is filed as cell-based, human. As for the experimental part:
(§2) The cells were harvested, washed in PBS and lysed in ripa buffer (50 mM Tris HCl pH7.4, 150 mM NaCl, 0.5% Sodium deoxycholate, 0.1% SDS, 1% NP40, 1 mM EDTA, 1 mM PMSF) containing protease inhibitor cocktail (Roche, Meylan, France) and phosphatase inhibitor (Active motif) for 10 min at 4° C. Sixty micrograms of proteins were boiled in Laemmli sample buffer (Bio-Rad) for 5 min, separated by SDS-PAGE using 12% or 15% polyacrylamide gels and blotted onto polyvinyl difluoride membranes (GE Healthcare). Non specific binding sites were blocked for 1 h at room temperature by 5% (wt/v) fat-free milk before overnight incubation at 4° C. with specific rabbit (or mouse for cyclin B1) anti-human antibodies: aurora kinase A and B, procaspase-3, PARP, Bcl-2, Bax and survivin (Cell Signaling Technology-Ozyme, Saint Quentin en Yvelines, France), p27, p21, Mcl-1, cyclin B1 (Santa Cruz biotechnology, Tebu-bio, le Perray en Yvelines, France), cyclin D1 (NeoMarkers, Thermo Fisher Scientific, Illkirch, France) or HSC70 (Abcam, Paris, France) as a loading control. Anti-phospho-ERK1/2 was a mouse monoclonal antibody against a synthetic phosphopeptide (residues around threonine 202 and […] of human p44 MAPK, Cell Signaling Technology, Ozyme, France). Polyclonal antibodies against ERK1 (rabbit, sc-94) or ERK2 (rabbit, sc-154) and phospho-MEK1/2 were from Santa Cruz Biotechnology (Tebu-bio). Rabbit anti-phospho-JNK (Cell Signaling, Saint-Quentin en Yvelines, France) and rabbit polyclonal antibody anti-P38 (Santa Cruz Biotechnology, Tebu-bio). Primary antibodies were detected with a horseradish peroxidase-conjugated IgGs (GE Healthcare, Orsay, France).
A general note: Immunoblotting shows a protein as a band on a membrane.

The test system of assay [4] is lovastatin-resistant HGT-1-derived cells. In words: Apoptosis in lovastatin-resistant HGT-1-derived cells. The format is cell-based, human. The note with it: data not shown. As for the experimental part: as §1
For assay [5], the system named is docetaxel-resistant HGT-1 cells (D5). As for the experimental part:
Selection of the docetaxel-resistant cell populations was performed with mass cultures grown in complete medium supplemented with 5 nM docetaxel. […] Cells were constantly grown in presence of 5 nM docetaxel, excepted for the cell passage that preceded the experiments that involved drug treatments. […]

Assay [6] has as its system D5 cells. Put plainly: Protein levels by western blotting in D5 cells. The format is cell-based, human. The note with it: 2.5 μM lovastatin, 72 h. As for the experimental part:
as §2, with “Polyclonal antibodies against ERK1 (rabbit, sc-94) or ERK2 (rabbit, sc-154) and phospho-MEK1/2 were from Santa Cruz Biotechnology (Tebu-bio). Rabbit anti-phospho-JNK (Cell Signaling, Saint-Quentin en Yvelines, France) and rabbit polyclonal antibody anti-P38 (Santa Cruz Biotechnology, Tebu-bio).” left out

The test system of assay [7] is D5 cells. Put plainly: p21 mRNA by RT-PCR in D5 cells. The format is cell-based, human. The note with it: data not shown. The procedure: Selection of the docetaxel-resistant cell populations was performed with mass cultures grown in complete medium supplemented with 5 nM docetaxel. […] Cells were constantly grown in presence of 5 nM docetaxel, excepted for the cell passage that preceded the experiments that involved drug treatments.

Take `CC(=O)O[C@@]12CO[C@@H]1C[C@H](O)[C@@]1(C)C(=O)[C@H](O)C3=C(C)[C@@H](OC(=O)[C@H](O)[C@@H](NC(=O)OC(C)(C)C)c4ccccc4)C[C@@](O)([C@@H](OC(=O)c4ccccc4)[C@H]21)C3(C)C` [docetaxel, Docetaxel]: in assay [1] (5 nM docetaxel, 48 h), the apoptosis worked out at 15%. The apoptosis in assay [1] (10 nM docetaxel, 48 h) is 27%. Further, in the assay with HGT-1 cells [2] (5 or 10 nM docetaxel), the p21 expression result is on record as “induced”. In addition, the “aurora kinase B and survivin mRNA” value in the assay with HGT-1 cells [2] is “weakly induced”. In the assay with HGT-1 cells [3], the “phospho-MEK1/2, phospho-ERK1/2 and p38 MAP kinase levels” value is reported as “had no effect”; the “phosphorylated jun kinase (JNK)” value was “had no effect”. In the assay with HGT-1 cells [3] (48 h), the Bax protein entry was “remained unchanged”; the “Caspase-3 and PARP cleavage” value is recorded as “cleaved”; the Mcl-1 protein result is listed as “suppressed”; the “cyclin B1, D1, aurora kinase A, B and survivin protein levels” value is listed as “decrease in these proteins”. Further, the survivin protein levels entry in the assay with HGT-1 cells [3] (48 h) is recorded as “strongly induced”. For the same molecule, the “cyclin B1 protein” value in the assay on HGT-1 cells [3] (docetaxel, 48 h) is given as “slightly increased”. In addition, the “apoptosis compared with HGT-1 parental cells” value in assay [4] is on record as “higher level”.
`CC[C@H](C)C(=O)O[C@H]1C[C@@H](C)C=C2C=C[C@H](C)[C@H](CC[C@@H]3C[C@@H](O)CC(=O)O3)[C@H]21` [lovastatin]: the apoptosis in assay [1] (12.5 μM lovastatin, 48 h) is listed as 35%. For the same molecule, in assay [1] (2.5 or 5 μM lovastatin, 48 or 72 h), the apoptosis entry is on record as “up to 32%”. The apoptosis entry in assay [5] (2.5 or 5 μM lovastatin, 48 or 72 h, D5 cells) is “up to 55%”. For the same molecule, the p27 expression result in the assay with HGT-1 cells [2] (12.5 μM lovastatin alone or with 5 or 10 nM docetaxel) is recorded as “slightly reduced”. For the same molecule, the “p21 mRNA induction” value in the assay with HGT-1 cells [2] (12.5 μM lovastatin) is listed as “up to 4 fold”. In the assay with HGT-1 cells [2], the “LDL-R, HMG-CoA reductase, FPPS and FAS mRNA levels” value is reported as “induced”; the “aurora kinase B and survivin mRNA” value is listed as “repressed”; the “cyclin B1, cyclin D1 and aurora kinase A mRNA” value is “reduced expression of all transcripts”. In the assay on HGT-1 cells [3], the “phospho-MEK1/2, phospho-ERK1/2 and p38 MAP kinase levels” value was “decreased”; the “phosphorylated jun kinase (JNK)” value is recorded as “induced”. In addition, in the assay on HGT-1 cells [3] (48 h), the Bax protein result is “slightly suppressed”; the “Caspase-3 and PARP cleavage” value is listed as “cleaved”; the Mcl-1 protein result was “suppressed”; the “cyclin B1, D1, aurora kinase A, B and survivin protein levels” value was “decrease in all proteins”. Further, in the assay with D5 cells [6], the “over-expressed survivin and cyclin B1 proteins in D5 cells” value is on record as “fully suppressed”; the “p27 protein in D5 cells” value is given as “induced”. Also, the “induction of p21 mRNA in D5 cells compared with HGT-1” value in the assay with D5 cells [7] is “stronger”.
In the case of `CC[C@]1(O)C[C@@H]2CN(CCc3c([nH]c4ccccc34)[C@@](C(=O)OC)(c3cc4c(cc3OC)N(C)[C@H]3[C@@](O)(C(=O)OC)[C@H](OC(C)=O)[C@]5(CC)C=CCN6CC[C@]43[C@@H]65)C2)C1` [vinblastine], the apoptosis entry in assay [1] (1 nM vinblastine, 48 h) is “about 30%”. Besides, in assay [5] (1 nM vinblastine, 48 h), the “vinblastine-induced apoptosis in D5 cells” value is recorded as “resistant”.
Take Z-VAD-fmk: the “effect on docetaxel-induced cell death” value in assay [1] (HGT-1, with docetaxel) is “suppress cell death”.
